Measured values as given in the supplement of paper PMC10307832.

Compound: Cc1ccc(Nc2nccc(N(C)c3ccc4c(C)n(C)nc4c3)n2)cc1S(N)(=O)=O [Pazopanib] + CC(=O)Nc1cccc(-n2c(=O)n(C3CC3)c(=O)c3c(Nc4ccc(I)cc4F)n(C)c(=O)c(C)c32)c1 [Trametinib] (partner 0.02 µM)
Test: relative viability (nuclei count vs DMSO), 5 days (fraction); higher = more cells survive
Settings: first compound 0.01 µM
Method in brief: (§1)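 Five library-drug doses in √10 steps were combined with a fixed anchor-drug dose, or a single drug was given alone, by pin tool to lung cancer cell lines in 1536-well plates the day after seeding. Nuclei were stained and counted after 5 days. Relative viability is the nuclei count in treated wells over that in vehicle wells, taken as the median of duplicate plates.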

Row | Cell Line | relative viability
1 | NCI-H2228 | 0.353
2 | NCI-H1355 | 0.363
3 | NCI-H322M | 0.513
4 | NCI-H1437 | 0.525
5 | NCI-H1755 | 0.685
6 | NCI-H2023 | 0.555

Same assay, conditions: first compound 0.03162 µM

Row | Cell Line | relative viability
7 | NCI-H358 | 0.134
8 | NCI-H3122 | 0.256
9 | HOP-62 | 0.371
10 | HCC-44 | 1
11 | LU99A | 0.622
12 | BEN | 1.04
13 | HARA | 0.94
14 | NCI-H441 | 0.445
15 | LCLC-97TM1 | 0.218
16 | NCI-H2009 | 0.25
17 | A-427 | 0.882
18 | NCI-H460 | 0.16
19 | NCI-H1734 | 0.697
20 | NCI-H520 | 0.78
21 | NCI-H2405 | 0.672
22 | SW 1573 | 0.671
23 | NCI-H1793 | 0.425

Row | Cell Line | relative viability
24 | 201T | 0.729
25 | NCI-H1915 | 0.312
26 | HCC-827 | 0.551
27 | LXF-289 | 0.675
28 | NCI-H23 | 0.438
29 | NCI-H650 | 0.918
30 | CAL-12T | 0.437
31 | NCI-H1651 | 0.831
32 | EPLC-272H | 0.278
33 | NCI-H2228 | 0.501
34 | NCI-H1792 | 0.432
35 | NCI-H1355 | 0.409
36 | NCI-H322M | 0.471
37 | NCI-H1437 | 0.531
38 | NCI-H1755 | 0.748
39 | NCI-H2023 | 0.619

Same assay, conditions: first compound 0.1 µM

Row | Cell Line | relative viability
40 | NCI-H358 | 0.124
41 | NCI-H3122 | 0.219
42 | HOP-62 | 0.421
43 | HCC-44 | 1.03
44 | LU99A | 0.632
45 | BEN | 0.916
46 | HARA | 0.604
47 | NCI-H441 | 0.474
48 | LCLC-97TM1 | 0.203
49 | NCI-H2009 | 0.175
50 | A-427 | 0.679
51 | NCI-H460 | 0.283
52 | NCI-H727 | 0.393
53 | NCI-H1734 | 0.671
54 | NCI-H520 | 0.644
55 | NCI-H2405 | 0.666
56 | SW 1573 | 0.604

Row | Cell Line | relative viability
57 | NCI-H1793 | 0.411
58 | 201T | 0.737
59 | NCI-H1915 | 0.355
60 | HCC-827 | 0.546
61 | LXF-289 | 0.717
62 | NCI-H23 | 0.364
63 | NCI-H650 | 0.984
64 | CAL-12T | 0.331
65 | NCI-H1651 | 0.814
66 | EPLC-272H | 0.281
67 | NCI-H2228 | 0.425
68 | NCI-H1792 | 0.418
69 | NCI-H1355 | 0.397
70 | NCI-H322M | 0.482
71 | NCI-H1437 | 0.454
72 | NCI-H1755 | 0.799
73 | NCI-H2023 | 0.615

Same assay, conditions: first compound 0.3162 µM

Row | Cell Line | relative viability
74 | NCI-H358 | 0.167
75 | NCI-H3122 | 0.25
76 | HOP-62 | 0.427
77 | HCC-44 | 1
78 | LU99A | 0.597
79 | BEN | 1.08
80 | HARA | 0.755
81 | NCI-H441 | 0.563
82 | LCLC-97TM1 | 0.209
83 | NCI-H2009 | 0.315
84 | A-427 | 0.71
85 | NCI-H460 | 0.108
86 | NCI-H727 | 0.359
87 | NCI-H1734 | 0.612
88 | NCI-H520 | 0.751
89 | NCI-H2405 | 0.644
90 | SW 1573 | 0.649

Row | Cell Line | relative viability
91 | NCI-H1793 | 0.404
92 | 201T | 0.783
93 | NCI-H1915 | 0.336
94 | HCC-827 | 0.547
95 | LXF-289 | 0.71
96 | NCI-H23 | 0.515
97 | NCI-H650 | 1.13
98 | CAL-12T | 0.437
99 | NCI-H1651 | 0.808
100 | EPLC-272H | 0.251
101 | NCI-H2228 | 0.32
102 | NCI-H1792 | 0.349
103 | NCI-H1355 | 0.446
104 | NCI-H322M | 0.452
105 | NCI-H1437 | 0.575
106 | NCI-H1755 | 0.723
107 | NCI-H2023 | 0.574

Same assay, conditions: first compound 1 µM

Row | Cell Line | relative viability
108 | NCI-H358 | 0.141
109 | NCI-H3122 | 0.251
110 | HOP-62 | 0.5
111 | HCC-44 | 1.09
112 | LU99A | 0.595
113 | BEN | 0.925
114 | HARA | 0.725
115 | NCI-H441 | 0.734
116 | LCLC-97TM1 | 0.279
117 | NCI-H2009 | 0.332
118 | A-427 | 0.753
119 | NCI-H460 | 0.287
120 | NCI-H727 | 0.4
121 | NCI-H1734 | 0.626
122 | NCI-H520 | 0.6
123 | NCI-H2405 | 0.524
124 | SW 1573 | 0.494

Row | Cell Line | relative viability
125 | NCI-H1793 | 0.502
126 | 201T | 0.705
127 | NCI-H1915 | 0.347
128 | HCC-827 | 0.559
129 | LXF-289 | 0.706
130 | NCI-H23 | 0.55
131 | NCI-H650 | 1.13
132 | CAL-12T | 0.446
133 | NCI-H1651 | 0.862
134 | EPLC-272H | 0.285
135 | NCI-H2228 | 0.759
136 | NCI-H1792 | 0.443
137 | NCI-H1355 | 0.534
138 | NCI-H322M | 0.489
139 | NCI-H1437 | 0.509
140 | NCI-H1755 | 0.767
141 | NCI-H2023 | 0.491

Compound: Cc1ccc(Nc2nccc(N(C)c3ccc4c(C)n(C)nc4c3)n2)cc1S(N)(=O)=O [Pazopanib] + CCNC(=O)c1noc(-c2cc(C(C)C)c(O)cc2O)c1-c1ccc(CN2CCOCC2)cc1 [Luminespib] (partner 0.01 µM)
Test: as above
Settings: first compound 0.01 µM
Method in brief: as §1

Row | Cell Line | relative viability
142 | NCI-H358 | 0.398
143 | NCI-H3122 | 0.0969
144 | HOP-62 | 0.79
145 | HCC-44 | 1.11
146 | LU99A | 0.245
147 | HARA | 0.548
148 | NCI-H441 | 0.343
149 | LCLC-97TM1 | 0.817
150 | NCI-H2009 | 1.04
151 | A-427 | 1.08
152 | NCI-H460 | 0.0281
153 | NCI-H727 | 0.346
154 | NCI-H1734 | 0.18
155 | NCI-H520 | 0.234
156 | NCI-H2405 | 0.728
157 | SW 1573 | 0.24
